Where a name gives a salt, the structure may show the parent alone. Read-outs that look alike come from different tables or passages of the source. Peptide text beside a SMILES is read from it.
Columns and labels:
[1] = system: NCI-H292 lung cancer cells; experiment: FDA drug screening, complete media vs cholesterol-free media without statin (TABLE 1); format: cell-based, human
[2] = system: NCI-H292 lung cancer cells; experiment: FDA drug screening, complete media vs cholesterol-free media with simvastatin (TABLE 2); format: cell-based, human
[3] = NCI-H292 cells, cholesterol-free media without statin, FDA drug library screen
[4] = NCI-H292 cells, complete media, FDA drug library screen
[5] = complete vs cholesterol-free media, >0 enhanced anti-cancer activity, about 0 neutral, <0 antagonist
[6] = NCI-H292 cells, cholesterol-free media with simvastatin 0.04 μM, FDA drug library screen (TABLE 2)
[7] = NCI-H292 cells, complete media, FDA drug library screen (TABLE 2)
[8] = complete media minus cholesterol-free media + simvastatin (0.04 μM), >0 enhanced anti-cancer activity, about 0 neutral, <0 antagonist
[9] = NCI-H292 cells, cholesterol-free media without statin
[10] = complete vs cholesterol-free media, greater than 0 enhanced anti-cancer activity, about 0 neutral, below 0 antagonists
[11] = Complete minus Cholesterol-free, […]
[12] = NCI-H292 cells, drug in cholesterol-free media with simvastatin 0.04 μM
[13] = NCI-H292 cells, drug in complete media
[14] = complete media vs cholesterol-free media + simvastatin (0.04 μM), […]
[15] = NCI-H292 cells, cholesterol-free media with simvastatin 0.04 μM, […]
[16] = NCI-H292 cells, complete media, […]
[17] = complete media minus cholesterol-free media + simvastatin, […]
[18] = Complete minus Cholesterol-free, >0 enhanced anti-cancer activity, about 0 neutral, <0 antagonist
[19] = NCI-H292 cells, FDA drug library screen, cholesterol-free media with simvastatin 0.04 μM
[20] = NCI-H292 cells, FDA drug library screen, complete media
[21] = complete media vs cholesterol-free media + simvastatin (0.04 μM), >0 enhanced anti-cancer activity, about 0 neutral, <0 antagonist
[22] = Complete minus Cholesterol-free, greater than 0 enhanced anti-cancer activity, about 0 neutral, below 0 antagonists
[23] = NCI-H292 cells in cholesterol-free media without statin
[24] = NCI-H292 cells in complete media
[25] = NCI-H292 cells, FDA library drug in cholesterol-free media with simvastatin 0.04 μM
[26] = NCI-H292 cells, FDA library drug in complete media
[27] = complete media minus cholesterol-free media + simvastatin, >0 enhanced anti-cancer activity, about 0 neutral, <0 antagonist
[28] = Complete minus Cholesterol-free, greater than 0 enhanced anti-cancer activity, about 0 neutral, below 0 antagonist
[29] = NCI-H292 cells, FDA drug library screen, cholesterol-free media without statin
[30] = NCI-H292 cells, cholesterol-free media with simvastatin 0.04 μM, cell growth value in FDA drug screen
[31] = NCI-H292 cells, complete media, cell growth value in FDA drug screen

## CN1CCC(=C2c3ccccc3CCn3c(C=O)cnc32)CC1 [Alcaftadine]
[1]
  Cholesterol-free: 1.45
  Complete: 1.003
  Difference: −0.45
[2]
  Cholesterol-free media + simvastatin (0.04 μM): 1.165
  Complete Media: 0.9908
  Difference: −0.17

## CC(=O)OCC(=O)[C@@]12N=C(C)O[C@@H]1C[C@H]1[C@@H]3CCC4=CC(=O)C=C[C@]4(C)[C@H]3[C@@H](O)C[C@@]12C [Deflazacort]
[1]; [3]
  Cholesterol-free: 0.629
[1]; [4]
  Complete: 0.7651
[1]; [5]
  Difference: 0.14
[2]; [6]
  Cholesterol-free media + simvastatin (0.04 μM): 0.6257
[2]; [7]
  Complete Media: 0.5899
[2]; [8]
  Difference: −0.04

## O=C1CC[C@@H](C(=O)N2CSC[C@H]2C(=O)O)N1 [Pidotimod] (HELM PEPTIDE1{[Glp].[O=C(O)[C@@H]1CSCN1[*:1]]}$$$$V2.0)
[1]; [9]
  Cholesterol-free: 1.383
[1]; NCI-H292 cells, complete media
  Complete: 0.9708
[1]; [10]
  Difference: −0.41
[2]; [6]
  Cholesterol-free media + simvastatin (0.04 μM): 1.016
[2]; [7]
  Complete Media: 1.03
[2]; [8]
  Difference: 0.01

## COc1ccc(CCN(C)CCC[C@@](C#N)(c2ccc(OC)c(OC)c2)C(C)C)cc1OC.Cl [(S)-Verapamil (hydrochloride)]
[1]; [11]
  Difference: −0.20
[1]; [9]
  Cholesterol-free: 1.169
[1]; NCI-H292 cells, complete media
  Complete: 0.9711
[2]; [12]
  Cholesterol-free media + simvastatin (0.04 μM): 1.086
[2]; [13]
  Complete Media: 0.9249
[2]; [14]
  Difference: −0.16

## CCCCCCCCCCCCCCCC[n+]1ccccc1.O.[Cl-] [Cetylpyridinium (chloride monohydrate)]
[1]; [11]
  Difference: 0.03
[1]; [3]
  Cholesterol-free: −0.01651
[1]; [4]
  Complete: 0.01449
[2]; [15]
  Cholesterol-free media + simvastatin (0.04 μM): 0.1519
[2]; [16]
  Complete Media: 0.2714
[2]; [17]
  Difference: 0.12

## Tafenoquine (Succinate)
[1]; [18]
  Difference: −0.06
[1]; [3]
  Cholesterol-free: 1.252
[1]; [4]
  Complete: 1.196
[2]; [19]
  Cholesterol-free media + simvastatin (0.04 μM): 1.136
[2]; [20]
  Complete Media: 1.045
[2]; [21]
  Difference: −0.09

## NCC(=O)O [Glycine]
[1]; [22]
  Difference: −0.56
[1]; [23]
  Cholesterol-free: 1.569
[1]; [24]
  Complete: 1.011
[2]; [25]
  Cholesterol-free media + simvastatin (0.04 μM): 1.249
[2]; [26]
  Complete Media: 0.983
[2]; [21]
  Difference: −0.27

## CC(=O)NS(=O)(=O)c1ccc(N)cc1 [Sulfacetamide (Sodium)]
[1]; [18]
  Difference: 0.04
[1]; [3]
  Cholesterol-free: 0.8669
[1]; [4]
  Complete: 0.9047
[2]; [19]
  Cholesterol-free media + simvastatin (0.04 μM): 1.134
[2]; [20]
  Complete Media: 1.384
[2]; [27]
  Difference: 0.25

## COc1cc2c(cc1Cc1cccc(Cl)c1F)c(=O)c(C(=O)O)cn2[C@H](CO)C(C)C [Elvitegravir]
[1]; [22]
  Difference: −0.83
[1]; [23]
  Cholesterol-free: 1.777
[1]; [24]
  Complete: 0.9448
[2]; [19]
  Cholesterol-free media + simvastatin (0.04 μM): 1.032
[2]; [20]
  Complete Media: 1.435
[2]; [27]
  Difference: 0.40

## Cc1cccc(C)c1OCC(C)N (centres unmarked) [Mexiletine (hydrochloride)]
[1]; [18]
  Difference: −0.20
[1]; [9]
  Cholesterol-free: 1.086
[1]; NCI-H292 cells, complete media
  Complete: 0.8848
[2]; [19]
  Cholesterol-free media + simvastatin (0.04 μM): 1.005
[2]; [20]
  Complete Media: 0.8858
[2]; [21]
  Difference: −0.12

## Prednisolone (disodium phosphate)
[1]; [9]
  Cholesterol-free: 1.087
[1]; NCI-H292 cells, complete media
  Complete: 0.6422
[1]; [10]
  Difference: −0.44
[2]; [19]
  Cholesterol-free media + simvastatin (0.04 μM): 0.4379
[2]; [20]
  Complete Media: 0.7375
[2]; [27]
  Difference: 0.30

## CCCCCCCCC(=O)NCc1ccc(O)c(OC)c1 [Nonivamide]
[1]; NCI-H292 cells, complete media
  Complete: 1.201
[1]; complete vs cholesterol-free media, […]
  Difference: −0.42
[2]; [15]
  Cholesterol-free media + simvastatin (0.04 μM): 1.059
[2]; [16]
  Complete Media: 1.139
[2]; [17]
  Difference: 0.08

## CCN(CC)CCOC(=O)C(c1ccccc1)c1ccccc1 [Adiphenine (hydrochloride)]
[1]; [18]
  Difference: −0.20
[1]; [9]
  Cholesterol-free: 1.088
[1]; NCI-H292 cells, complete media
  Complete: 0.8864
[2]; [25]
  Cholesterol-free media + simvastatin (0.04 μM): 1.255
[2]; [26]
  Complete Media: 0.9527
[2]; [21]
  Difference: −0.30

## CC(=O)N[C@@H](CC(C)C)C(=O)O [Acetylleucine]
[1]; [28]
  Difference: −0.09
[1]; [29]
  Cholesterol-free: 0.9104
[1]; [20]
  Complete: 0.8206
[2]; [6]
  Cholesterol-free media + simvastatin (0.04 μM): 0.8948
[2]; [7]
  Complete Media: 0.8714
[2]; [8]
  Difference: −0.02

## Clc1ccc(CO/N=C(\Cn2ccnc2)c2ccc(Cl)cc2Cl)c(Cl)c1 [Oxiconazole nitrate]
[1]; [18]
  Difference: 0.00
[1]; [3]
  Cholesterol-free: 0.7425
[1]; [4]
  Complete: 0.7401
[2]; [19]
  Cholesterol-free media + simvastatin (0.04 μM): 0.3071
[2]; [20]
  Complete Media: 1.067
[2]; [27]
  Difference: 0.76

## C[C@@H]1O[C@@H](OC[C@H]2O[C@@H](Oc3c(-c4ccc(O)c(O)c4)oc4cc(O)cc(O)c4c3=O)[C@H](O)[C@@H](O)[C@@H]2O)[C@H](O)[C@H](O)[C@H]1O [Rutin]
[1]; [3]
  Cholesterol-free: 1.229
[1]; [4]
  Complete: 1.309
[1]; [5]
  Difference: 0.08
[2]; [12]
  Cholesterol-free media + simvastatin (0.04 μM): 1.71
[2]; [13]
  Complete Media: 1.488
[2]; [21]
  Difference: −0.22

## CO[C@@]1(NC(=O)C2SC(=C(C(N)=O)C(=O)O)S2)C(=O)N2C(C(=O)O)=C(CSc3nnnn3C)CS[C@@H]21 (some centres unmarked) [Cefotetan]
[1]; [18]
  Difference: −0.26
[1]; [9]
  Cholesterol-free: 1.196
[1]; NCI-H292 cells, complete media
  Complete: 0.9309
[2]; [12]
  Cholesterol-free media + simvastatin (0.04 μM): 1.2
[2]; [13]
  Complete Media: 1.027
[2]; [21]
  Difference: −0.17

## Oxolamine (citrate)
[1]
  Cholesterol-free: 1.162
  Complete: 0.9128
  Difference: −0.25
[2]
  Cholesterol-free media + simvastatin (0.04 μM): 0.8466
  Complete Media: 1.01
  Difference: 0.16

## CN1C(=O)OC(C)(C)C1=O [Trimethadione]
[1]; [18]
  Difference: −0.23
[1]; [9]
  Cholesterol-free: 1.085
[1]; NCI-H292 cells, complete media
  Complete: 0.857
[2]; [30]
  Cholesterol-free media + simvastatin (0.04 μM): 1.017
[2]; [31]
  Complete Media: 1.08
[2]; [27]
  Difference: 0.06

## Nc1c2c(nc3ccccc13)CCCC2 [Tacrine hydrochloride hydrate]
[1]; [3]
  Cholesterol-free: 1.254
[1]; [4]
  Complete: 1.477
[1]; [5]
  Difference: 0.22
[2]; [6]
  Cholesterol-free media + simvastatin (0.04 μM): 1.406
[2]; [7]
  Complete Media: 1.383
[2]; [8]
  Difference: −0.02

## CC(C)c1nc(N(C)S(C)(=O)=O)nc(-c2ccc(F)cc2)c1/C=C/[C@@H](O)C[C@@H](O)CC(=O)O [Rosuvastatin (Calcium)]
[1]; [18]
  Difference: −0.24
[1]; [9]
  Cholesterol-free: 1.156
[1]; NCI-H292 cells, complete media
  Complete: 0.9201
[2]; [30]
  Cholesterol-free media + simvastatin (0.04 μM): 0.9188
[2]; [31]
  Complete Media: 1.001
[2]; [27]
  Difference: 0.08

## Osimertinib mesylate
[1]; [11]
  Difference: −0.14
[1]; [29]
  Cholesterol-free: 0.3436
[1]; [20]
  Complete: 0.1992
[2]; [19]
  Cholesterol-free media + simvastatin (0.04 μM): 0.3874
[2]; [20]
  Complete Media: 0.2672
[2]; [14]
  Difference: −0.12

## N[C@@H](Cc1cc(I)c(Oc2cc(I)c(O)c(I)c2)c(I)c1)C(=O)O [L-Thyroxine (sodium salt pentahydrate)]
[1]; [28]
  Difference: −0.15
[1]; [29]
  Cholesterol-free: 1.238
[1]; [20]
  Complete: 1.085
[2]; [30]
  Cholesterol-free media + simvastatin (0.04 μM): 0.8275
[2]; [31]
  Complete Media: 0.8532
[2]; [27]
  Difference: 0.03

Reference: patent US20250144067A1, “PERSONALIZED STARVATION THERAPY FOR CANCER” (Faeth Therapeutics, Inc., priority 2021, published 2025)
